Experimental data from patent publication US20240368151A1, “NOVEL ERGOLINES AND METHODS OF TREATING MOOD DISORDERS” (priority 2021, published 2024).

Experiments:
5-HT2A receptor [1] = target: T1, 5-HT2A receptor (Homo sapiens (Human), UniProt P28223); type: cell-based; details: Ca^2+ flux, HEK293
Description: (§1) Functional Assays at 5-HT2A, 5-HT2B, and 5-HT1A. Agonist activity at 5-HT2A, 5-HT2B, and 5-HT1A receptors was determined using a FLIPR Ca^2+ flux assay at WuXi AppTec (Hong Kong) Limited according to their standard protocols. Briefly, stably transfected cells expressing the receptor of interest (HEK293 for 5-HT2A and 5-HT2B; CHO cells for 5-HT1A) were grown and plated in a 384 well plate and incubated at 37° C. and 5% CO2 overnight. A solution of 250 mM probenecid in 1 mL FLIPR assay buffer was prepared fresh. This was combined with a fluorescent dye (Fluo-4 Direct™) to make a final assay concentration of 2.5 mM. […] The fluorescent dye was then added to the assay plate along with assay buffer to a final volume of 40 μL. The cell plate was incubated for 50 min at 37° C. and 5% CO2 and placed into the FLIPR Tetra along with the compound plate. 10p L of references and compounds were then transferred from the compound plate into the cell plate and the fluorescent signal was read.

5-HT2B receptor = 5-HT2B receptor (Homo sapiens (Human), UniProt P41595); test: FLIPR Ca^2+ flux agonist assay at 5-HT2B; type: cell-based; details: HEK293
Description: as §1

5-HT1A receptor = 5-HT1A receptor (Homo sapiens (Human), UniProt P08908); test: FLIPR Ca^2+ flux agonist assay at 5-HT1A; type: cell-based; details: CHO cells
Description: as §1

5-HT1B receptor = 5-HT1B receptor (Homo sapiens (Human), UniProt P28222); test: cAMP accumulation agonist assay at 5-HT1B; type: cell-based
Description: Functional Assay at 5-HT1B. Agonist activity at 5-HT1B was determined using a cAMP accumulation protocol at WuXi AppTec (Hong Kong) Limited according to their standard protocols. Briefly, stably transfected cells were plated in an OptiPlate-384 well plate, incubated at RT for 60 mins, and cAMP standard solution (800 nM, 10 μL) was added to the blank well. Then, 10 μL detection reagent was added to each well, the plate incubated for 60 mins at RT, and the plate read using EnVision.

Alpha1A receptor = Alpha1A receptor (Homo sapiens (Human), UniProt P35348); test: FLIPR Ca^2+ flux agonist assay at Alpha1A; type: cell-based
Description: Disclosed compounds were tested for agonist activity at several adrenergic (Alpha1A and Alpha2A) and dopamine (D1 and D2) receptor subtypes using Ca^2+ flux functional assays, with the results summarized in Table 6. Selectivity for the 5-HT2A receptor over these other targets varied depending on the specific target and compound.
(§2) Functional Assays at Adrenergic and Dopamine Receptors. Agonist activity at Alpha1A, Alpha2A, D1, and D2 receptors was determined using a FLIPR Ca^2+ flux assay at WuXi AppTec (Hong Kong) Limited according to their standard protocols. Briefly, stably transfected cells expressing the receptor of interest were grown and plated in a 384 well plate and incubated at 37° C. and 5% CO2 overnight. A solution of 250 mM probenecid in 1 mL FLIPR assay buffer was prepared fresh. This was combined with a fluorescent dye (Fluo-4 Direct™) to make a final assay concentration of 2.5 mM. Compounds were diluted 1:3.16 for 10 points and 750 nL was added to a 384 well compound plate using ECHO along with 30 μL assay buffer. The fluorescent dye was then added to the assay plate along with assay buffer to a final volume of 40 μL. The cell plate was incubated for 50 min at 37° C. and 5% CO2 and placed into the FLIPR Tetra along with the compound plate. 10 μL of references and compounds were then transferred from the compound plate into the cell plate and the fluorescent signal was read.

[2] = Metabolic stability in human liver microsomes (HLM); type: in vitro ADME; details: both sexes, human, pooled human liver microsomes, pH 7.4, NADPH
Description: HLM Stability. Pooled HLM from adult male and female donors (Corning 452117) were used.

[3] = Metabolic stability in mouse liver microsomes (MLM); type: in vitro ADME; details: mouse, pooled mouse liver microsomes, pH 7.4, MLM (CD-1), NADPH
Description: MLM Stability Pooled MLM from CD-1 mice (BIOIVT M00501) were used.

[4] = Metabolic stability in rat liver microsomes (RLM); type: in vitro ADME; details: both sexes, rat, pooled rat liver microsomes, pH 7.4, NADPH
Sprague Dawley rats = test: Forced swim test (FST) in rats; type: in vivo, rat; details: rat FST, 20 mg/kg SC at 23.5 h, 5 h and 1 h before test swim; average of 3 independent experiments
Description: Compound 1 induced antidepressant-like effects in the forced swim test (FST) in rats with a 23.5-h pre-treatment time (FIG. 2).
Animals. Male Sprague Dawley rats, aged 9-10 weeks, were used in this experiment. Animals were housed in groups of 2 under controlled temperature (22±3° C.) and relative humidity (30-70%) conditions, with 12-hour light/dark cycles, and with ad libitum food and water. This study was carried out in strict accordance with the requirements of the Committee for the Purpose of Control and Supervision of Experiments on Animals (CPCSEA), India. All efforts were made to minimize suffering.
Drugs and Drug Administration. Compound 1 was synthesized as described above. Desipramine HCl was commercially obtained. The test compound, saline vehicle, and the positive control desipramine were administered subcutaneously (SC), with doses calculated based on the freebase. Normal saline was used as the vehicle. All compounds were administered at a volume of 5 mL/kg. The test compound and vehicle were administered 0.5 h after the start of the training swim (Swim 1) and 23.5 h before the test swim (Swim 2). Desipramine was administered 3 times, at 23.5 h, 5 h, and 1 h before the test swim (Swim 2), each time at a dose of 20 mg/kg. Group size was n=10 per treatment.
Forced Swim Test (FST). […] Rats were handled for about 2 min daily for the 5 days prior to the beginning of the experimental procedure. On the first day of the experiment (i.e., Day 0), post randomization, training swim sessions (Swim 1) were conducted between 12:00 and 18:00 h with all animals by placing rats in individual glass cylinders (46 cm tall×20 cm in diameter) containing 23-25° C. water 30 cm deep for 15 minutes. At the conclusion of Swim 1, animals were dried with paper towels, placed in heated drying cages for 15 minutes, and then returned to their home cages. Animals were then administered the appropriate drug or vehicle treatment(s), as described above. For clarity, a compound administration time of 23.5 h before Swim 2 means 0.5 h after the start of Swim 1 and 0.25 h after the completion of Swim 1 (i.e., immediately after return to the home cage). On Day 1 (i.e., 24 h after start of Swim 1), animals performed the test swim (Swim 2) for a period of 5 min but otherwise under the same conditions as Swim 1. During all swim sessions, the water was changed between each animal.
Behavioral scoring was conducted by observers who were blind to the treatment groups. Animals were continuously observed during Swim 2 and the total time spent engaging in the following behaviors was recorded: immobile, swimming, and climbing. A rat was judged to be immobile when it remained floating in the water without struggling and was making only those movements necessary to keep its head above water. A rat was judged to be swimming when it made active swimming motions, more than necessary to merely maintain its head above water (e.g., moving around in the cylinder). A rat was judged to be climbing when it made active movements with its forepaws in and out of the water, usually directed against the walls.
Statistical Analysis. The data points shown represent the mean±standard error of the mean (SEM). Analysis was performed using GraphPad Prism 6. Comparisons between groups were performed using the one-way analysis of variance (ANOVA), followed by Dunnett's test for comparisons to vehicle.
Additional disclosed compounds were tested in the forced swim test (FST) in rats according to the procedure described in Example 35.

5-HT2A receptor [5] = target: T1, 5-HT2A receptor; type: cell-based; details: beta-arrestin recruitment
Description: The degree of arrestin bias varied substantially across the other compounds tested as well.
Arrestin Functional Assay at 5-HT2A. Recruitment of beta-arrestin was determined using a PathHunter assay at Eurofins DiscoverX (Fremont, CA) according to their standard protocols. PathHunter GPCR beta-arrestin assays take advantage of DiscoverX's proprietary Enzyme Fragment Complementation technology. The GPCR is fused in frame with a small enzyme donor fragment ProLink™ (PK) and co-expressed in cells stably expressing a fusion protein of beta-arrestin and the larger, N-terminal deletion mutant of beta-galactosidase. Activation of the GPCR (5-HT2A receptor in this case) stimulates binding of beta-arrestin to the PK-tagged GPCR and forces complementation of the two enzyme fragments, resulting in the formation of an active beta-galactosidase enzyme. This interaction leads to an increase in enzyme activity that can be measured using chemiluminescent PathHunter Detection Reagents. Briefly, PathHunter cells expressing 5-HT2A receptors were seeded in a volume of 20 μL into 384-well plates and incubated at 37° C. for the appropriate time prior to testing. […] Plates were then imaged on a microplate reader and the agonist activity was calculated using the following formula: % Activity=100%×(mean RLU of test sample−mean RLU of vehicle control)/(mean MAX control ligand−mean RLU of vehicle control), where RLU=relative light units.

D1 receptor = D1 receptor (Homo sapiens (Human), UniProt P21728); test: FLIPR Ca^2+ flux agonist assay at D1; type: cell-based
Description: as §2, with “Compounds were diluted 1:3.16 for 10 points and 750 nL was added to a 384 well compound plate using ECHO along with 30 μL assay buffer.” left out

D2 receptor = D2 receptor (Homo sapiens (Human), UniProt P14416); test: FLIPR Ca^2+ flux agonist assay at D2; type: cell-based
Description: as §2, with “Compounds were diluted 1:3.16 for 10 points and 750 nL was added to a 384 well compound plate using ECHO along with 30 μL assay buffer.” left out

Chain of 5-HT1B receptor (P28222 whole entry, looked up): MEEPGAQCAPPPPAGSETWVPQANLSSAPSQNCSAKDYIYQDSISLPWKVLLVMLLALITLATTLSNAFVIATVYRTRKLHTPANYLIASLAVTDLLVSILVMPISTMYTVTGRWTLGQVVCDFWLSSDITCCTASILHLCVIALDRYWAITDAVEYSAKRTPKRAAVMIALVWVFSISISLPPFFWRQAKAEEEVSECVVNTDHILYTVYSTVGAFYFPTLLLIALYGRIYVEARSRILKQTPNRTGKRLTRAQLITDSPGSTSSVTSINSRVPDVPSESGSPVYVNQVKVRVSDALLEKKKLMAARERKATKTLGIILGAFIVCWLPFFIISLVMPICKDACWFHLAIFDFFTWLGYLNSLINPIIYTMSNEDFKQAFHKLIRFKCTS
Chain of Alpha1A receptor (P35348 whole entry, looked up): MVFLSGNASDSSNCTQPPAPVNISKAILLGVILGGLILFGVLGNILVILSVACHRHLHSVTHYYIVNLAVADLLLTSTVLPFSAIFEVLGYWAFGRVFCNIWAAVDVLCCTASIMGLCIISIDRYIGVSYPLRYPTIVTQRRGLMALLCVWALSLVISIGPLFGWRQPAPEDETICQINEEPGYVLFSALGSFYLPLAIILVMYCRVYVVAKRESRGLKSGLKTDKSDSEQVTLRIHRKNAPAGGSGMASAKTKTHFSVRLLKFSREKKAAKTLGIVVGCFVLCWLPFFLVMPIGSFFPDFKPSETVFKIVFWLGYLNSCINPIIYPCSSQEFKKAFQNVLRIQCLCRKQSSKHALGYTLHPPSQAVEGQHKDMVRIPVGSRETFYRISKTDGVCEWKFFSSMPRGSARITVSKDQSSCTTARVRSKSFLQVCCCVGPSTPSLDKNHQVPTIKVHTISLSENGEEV
Chain of 5-HT2B receptor (P41595 whole entry, looked up): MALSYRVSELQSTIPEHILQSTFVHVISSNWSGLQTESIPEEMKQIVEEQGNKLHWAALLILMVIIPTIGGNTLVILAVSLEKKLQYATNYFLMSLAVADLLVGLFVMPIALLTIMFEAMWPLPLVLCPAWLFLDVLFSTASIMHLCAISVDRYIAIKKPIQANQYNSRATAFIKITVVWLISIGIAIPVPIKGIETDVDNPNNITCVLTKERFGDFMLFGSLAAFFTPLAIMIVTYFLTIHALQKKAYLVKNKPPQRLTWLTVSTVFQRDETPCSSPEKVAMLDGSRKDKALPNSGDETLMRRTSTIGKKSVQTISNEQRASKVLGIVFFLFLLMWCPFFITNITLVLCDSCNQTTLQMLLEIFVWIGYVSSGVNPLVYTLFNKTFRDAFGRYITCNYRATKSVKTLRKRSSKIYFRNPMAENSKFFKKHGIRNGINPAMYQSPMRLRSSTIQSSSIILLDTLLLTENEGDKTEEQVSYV
Chain of D1 receptor (P21728 whole entry, looked up): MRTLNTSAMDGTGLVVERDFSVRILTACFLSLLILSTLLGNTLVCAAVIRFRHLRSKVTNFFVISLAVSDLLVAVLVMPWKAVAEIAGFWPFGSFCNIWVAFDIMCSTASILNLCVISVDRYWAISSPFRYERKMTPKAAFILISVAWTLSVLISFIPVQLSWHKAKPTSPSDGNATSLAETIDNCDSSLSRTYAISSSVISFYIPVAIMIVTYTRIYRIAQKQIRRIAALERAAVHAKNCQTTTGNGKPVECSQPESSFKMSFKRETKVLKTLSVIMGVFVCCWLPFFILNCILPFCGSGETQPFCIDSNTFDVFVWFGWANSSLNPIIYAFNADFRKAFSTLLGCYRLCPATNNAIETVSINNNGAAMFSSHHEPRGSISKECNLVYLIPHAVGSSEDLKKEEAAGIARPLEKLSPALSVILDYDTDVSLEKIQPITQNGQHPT
Chain of D2 receptor (P14416 whole entry, looked up): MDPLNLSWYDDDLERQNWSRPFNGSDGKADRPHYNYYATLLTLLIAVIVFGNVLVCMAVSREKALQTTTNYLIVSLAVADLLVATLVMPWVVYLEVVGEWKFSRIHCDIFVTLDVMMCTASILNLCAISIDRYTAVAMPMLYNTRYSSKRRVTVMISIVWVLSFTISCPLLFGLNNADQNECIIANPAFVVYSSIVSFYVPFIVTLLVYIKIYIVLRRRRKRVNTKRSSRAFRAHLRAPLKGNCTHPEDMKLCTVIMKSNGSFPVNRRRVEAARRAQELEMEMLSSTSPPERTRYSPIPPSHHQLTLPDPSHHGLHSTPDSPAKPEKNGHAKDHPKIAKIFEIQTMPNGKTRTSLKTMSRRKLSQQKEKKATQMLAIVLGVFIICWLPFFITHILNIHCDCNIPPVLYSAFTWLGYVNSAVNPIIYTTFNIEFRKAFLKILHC

In the case of `CCN(CC)C(=O)[C@@H]1C=C2c3cccc4[nH]cc(c34)C[C@H]2N(CCC(F)(F)F)C1` [Compound 12, (6aR,9R)-N,N-diethyl-7-(3,3,3-trifluoropropyl)-4,6,6a,7,8,9-hexahydroindolo[4,3-fg]quinoline-9-carboxamide], the “5-HT2A % Act @ Max Dose” value (5-HT2A receptor [1]) is reported as 78.69%, the “5-HT2B % Act @ Max Dose” value (5-HT2B receptor) is reported as 29.55% and the “5-HT1A % Act @ Max Dose” value (5-HT1A receptor) is reported as 71.42%. For the same compound, the “5-HT1B % Act @ Max Dose” value (5-HT1B receptor) was 95.51%, the “Alpha 1A % Act @ Max Dose” value (Alpha1A receptor) was 2.08% and the half-life at 1 μM [2] was 13.5 min. It also gave a half-life at 1 μM [3] of 2.1 min and a half-life at 1 μM [4] of 5.9 min.

With `CNCCCN1c2ccccc2CCc2ccccc21` [Desipramine, reference compound] the “Time Immobile” value (Sprague Dawley rats) was 60.93 s.

With `CCN(CC)C(=O)[C@@H]1C=C2c3cccc4[nH]cc(c34)C[C@H]2N(C)C1` [LSD, lysergic acid diethylamide, reference compound] the “5-HT2A % Act @ Max Dose” value (5-HT2A receptor [1]) was 107.7%, the “5-HT2B % Act @ Max Dose” value (5-HT2B receptor) was 19.26% and the “5-HT1A % Act @ Max Dose” value (5-HT1A receptor) was 91.39%. For the same compound, the “5-HT1B % Act @ Max Dose” value (5-HT1B receptor) was 98.03%, the “5-HT2A Arrestin % Act @ Max Dose” value (5-HT2A receptor [5]) was 52.646% and the “agonist type in the 5-HT2A arrestin recruitment assay, in words” value (5-HT2A receptor [5]) was “partial agonists”. For the same compound, the “Alpha 1A % Act @ Max Dose” value (Alpha1A receptor) was 60.3%, the “D1 % Act @ Max Dose” value (D1 receptor) was 94.9% and the “D2 % Act @ Max Dose” value (D2 receptor) was 78.33%. For the same compound, the half-life at 1 μM [2] was 71.6 min, the half-life at 1 μM [3] was 31.3 min and the half-life at 1 μM [4] was 60.2 min.

With `CCN(CC)C(=O)[C@@H]1C=C2c3cccc4[nH]cc(c34)C[C@H]2N(CC2CC2)C1` [Compound 13, (6aR,9R)-N,N-diethyl-7-(Cyclopropylmethyl)-4,6,6a,7,8,9-hexahydroindolo[4,3-fg]quinoline-9-carboxamide] the “5-HT2A % Act @ Max Dose” value (5-HT2A receptor [1]) was 92.60%, the “5-HT2B % Act @ Max Dose” value (5-HT2B receptor) was 91.75% and the “5-HT1A % Act @ Max Dose” value (5-HT1A receptor) was 83.08%. The “5-HT1B % Act @ Max Dose” value (5-HT1B receptor) was 90.43%, the “Alpha 1A % Act @ Max Dose” value (Alpha1A receptor) was 80.79% and the half-life at 1 μM [2] was 21.1 min. It also gave a half-life at 1 μM [3] of 3.7 min and a half-life at 1 μM [4] of 27.7 min.
